We go through five compounds from patent publication US20180296561A1, “The Methods For Treatment Of Tumors” (The University of North Carolina at Chapel Hill, priority 2015, published 2018).

The test system of assay [1] is monocytes and macrophages that expressed MerTK. Particulars: addition of UNC569; cited from earlier work.
Another assay deals with melanoma cells. Particulars: cited from earlier work.
The test system of assay [2] is non-small cell lung cancer (NSCLC) and acute myeloid leukemia (AML) tumor cell lines. Particulars: cited from earlier work.
In a further assay the test system is melanoma. Particulars: melanoma mouse model, therapeutic doses; cited from earlier work.
In a further assay the test system is Colon26 tumor cells. Nature of the assay: Colon26 syngeneic colon carcinoma model: tumor volume, time to endpoint, survival. The format is in vivo, Female BALB/c mice. Particulars: for median time to endpoint (TTE): endpoint 1000 mm^3 or 45 days; for tumor growth delay (TGD) / tumor growth delay (TGD), percent / mice remaining through day 15: alone or with the antibody in the label; for mice remaining through day 15: n=9. As to the method: Female BALB/c mice were injected with 5×10^5 Colon26 tumor cells in 0% Matrigel sc in flank. The cell injection volume was 0.1 mL/mouse. Mice were between 7 to 10 weeks at the start of the experiment. When tumors reached an average size of 80-120 mm^3, treatment was begun. Body weight was measured five times per week for the first two weeks and then twice per week to the end of the experiment. Tumor volume was measured by caliper measurement twice per week to the end of the experiment. […] Any group with a mean body weight loss of greater than 20% or greater than 10% mortality was stopped dosing. The group was not euthanized and recovery was allowed. Within a group with greater than 20% weight loss, individuals hitting the individual body weight loss endpoint were euthanized. The endpoint of the experiment was a tumor volume of 1000 mm^3 or 45 days, whichever endpoint came first. When the endpoint was reached, the mice were euthanized.
UNC2371 was prepared in salt form and the dosing solution was prepared every day. UNC2371 was prepared in deionized water. All doses represent total substance dosed by weight of compound (including salt weight). […] Dosing solution was prepared at 5 mL/kg (0.100 mL/20 g mouse) and volume was adjusted accordingly for body weight. Dosing solutions of anti-CTLA4 9H10 (BioXcell cat# BE0131) and anti-PD1 RMP1-14 (rat Ig—BioXcell cat# BE0146) were prepared in PBS every week, stored at 4° C., and protected from light. Dosing solution was prepared at 10 mL/kg (0.200 mL/20 g mouse) and volume was adjusted accordingly for body weight.
Mice were randomized into twelve different experimental groups. Group 1 received deionized water via oral gavage (p.o.) three times daily for twenty-one days, starting with two doses on Day 1 (tid×21 first day two doses) and PBS i.p. twice weekly for two weeks (biwk×2). Groups 2-4 received UNC2371 via oral gavage (p.o.) three times daily for twenty-one days, starting with two doses on Day 1 (tid×21 first day two doses). Dosing amounts for UNC2371 for Groups 2-4 were 1, 5 and 15 mg/kg, respectively. Group 5 received anti-PD1 mAb at a dosage of 5 mg/kg i.p. biwk×2. Group 6 received anti-CTLA4 mAb at a dosage of 5 mg/kg on Day 1 and at 2.5 mg/kg on Days 4 and 7. Groups 7-9 received UNC2371 (p.o. tid×21, first day two doses) at 1, 5 and 15 mg/kg, respectively, in combination with anti-PD1 (5 mg/kg i.p. biwk×2). Groups 10-12 received UNC2371 (p.o. tid×21, first day two doses) at 1, 5 and 15 mg/kg, respectively, in combination with anti-CTLA4 (5 mg/kg on Day 1 and at 2.5 mg/kg on Days 4 and 7).

For assay [3], the system named is Colon26 murine colon carcinoma. As to the kind of experiment: Immunohistochemistry of Colon26 tumors (CD3, F4/80, survivin). It counts as in vivo, mouse. As to the method:
Tumors from 2 to 3 mice per treatment group were formalin fixed and paraffin embedded. The samples were analyzed by immunohistochemistry for several biological markers (data not shown). T cells (cell marker=CD3) were increased in the 1 mg/kg UNC2371 (low dose) monotherapy arm and 1 mg/kg UNC2371/anti-CTLA4 combination treatment arm compared to vehicle. […] Macrophages (cell marker F4/80) were highest in group 6 (anti-CTLA4) and group 10 (UNC2371 1 mg/kg+anti-CTLA4) with similar staining seen in these two groups. […] Tumors were also analyzed for survivin staining.

A further assay deals with B16 melanoma. Nature of the assay: B16 melanoma mouse model with radiation therapy (XRT), secondary tumor. The format is in vivo. As to the method: MerTK ihibitors were analyzed in combination with immune checkpoint inhibitors in a B16 melanoma mouse model for their effect on secondary tumor growth in mice treated with radiation therapy (XRT). XRT is performed according to the following schematic:
Briefly, XRT (8 Gy) was given on days 9, 10, and 11. UNC2371 was given at a dose of 50 mg/kg, by oral gavage, qd, initiated at Day 8. Anti-PD1 was given at 200 μg IP on days 6, 9, and 12. Eight mice were analyzed in each treatment arm (XRT, MerTKi, anti-PD1, anti-PD1+MerTKi, XRT+MerTKi, XRT+anti-PD1, and XRT+anti-PD1+MerTKi). Tumors were implanted on both flanks, and the secondary tumor was shielded during XRT treatment. The secondary tumor was assessed for impact of abscopal effect.

Assay [4] relates to myeloid-derived suppressor cells (MDSCs). As to the kind of experiment: mRNA expression in myeloid-derived suppressor cells from B16/F10 tumor-bearing mice. The format is in vivo, mouse. The procedure: To evaluate the effect of MerTK inhibitors on myeloid-derived suppressor cells (MDSCs), C57BL/6 B16/F10 melanoma cells were implanted into syngeneic mice and tumors are allowed to form. Once tumors reached 5 mm in diameter, mice received either vehicle (0.9% NaCl) or 10, 25 or 50 mg/kg UNC2371 for 5 days. Initial experiments determined the lowest dose capable of altering the immune system. Myeloid-derived suppressor cells (MDSCs) were isolated from the spleens of tumor-bearing mice by fluorescence activated cell sorting using the cell surface markers CD11b^+Ly6G^−Ly6C^high and G-MDSCs by CD11b^+Ly6G^highLy6C^low. MDSCs' suppressive capabilities were assessed by the level of RNA for M2 capabilities.

The test system of assay [5] is Colon26 murine colon carcinoma. Nature of the assay: Flow cytometry of immune cells in tumor and PBMCs, Colon26 model, Day 8. The format is in vivo, mouse. As to the method:
Tumor samples and blood samples were analyzed by flow cytometry to determine the effect of a MerTK inhibitor on immune cells alone or in combination with an immune checkpoint inhibitor in the Colon26 murine colon carcinoma mouse model. In the following example, the MerTK inhibitor UNC2371 was examined in combination with the immune checkpoint inhibitors anti-CTLA4 and anti-PD1. Experiments were performed as described in Example 3 above, except that mice in each group were euthanized at Day 8, and tumor tissue and blood samples were collected. Blood samples were collected by terminal cardiac puncture under isoflurane anesthesia. Blood was processed for peripheral blood monocyte cells (PBMCs; enriches the white cell population). Flow cytometry was conducted to identify specific white cell populations in both the PBMCs as well as the tumor cells. Tumor samples were preserved (single cell suspension) and maintained at −4° C.

The next assay relates to AML. Particulars: cited from earlier work.

Molecules are shown by their SMILES.

`CCCCNc1ncc2c(-c3ccc(F)cc3)nn(CC3CCC(N)CC3)c2n1` (stereo not drawn) [UNC569]: the “production of inflammatory cytokines” value in assay [1] is recorded as “restored”.
For `CCCCNc1ncc2c(-c3ccc(S(=O)(=O)N4CCOCC4)cc3)nn(C3CCC(O)CC3)c2n1` (stereo not drawn) [UNC1062], in the assay on melanoma cells, the “activation of MERTK-mediated downstream signaling” value is recorded as “reduced”, the apoptosis in culture entry is “induced”, the “colony formation in soft agar” value was “reduced” and the “invasion of melanoma cells” value is “inhibited”.
`CCCCNc1ncc2c(-c3ccc(CN4CCN(C)CC4)cc3)cn(C3CCC(O)CC3)c2n1` (stereo not drawn) [UNC2025A]: in assay [2], the colony formation entry is listed as “can inhibit colony formation”. For the same compound, in the assay on melanoma, the survival result is “survival advantage”.
For the compound `CN1CCN(Cc2ccc(-c3cn(C4CCC(O)CC4)c4nc(NCCC5CC5)ncc34)cc2)CC1` (stereo not drawn) [UNC2371], in the assay on Colon26 tumor cells (anti-CTLA4, anti-PD1 and low dose UNC2371 as single agents, FIGS. 16 to 18), the single agent efficacy result was “failed to demonstrate single agent efficacy”. For the same compound, the “median time to endpoint (TTE)” value is listed as 20.7 days with Colon26 tumor cells (high dose UNC2371 15 mg/kg TID p.o. x21, alone or with the antibody in the label); 14.0 days in the assay with Colon26 tumor cells (low dose UNC2371 1 mg/kg TID p.o. x21, alone or with the antibody in the label); 16.7 days in the assay on Colon26 tumor cells (mid dose UNC2371 5 mg/kg TID p.o. x21, alone or with the antibody in the label). Also, the results for the “tumor growth delay (TGD)” value in the assay with Colon26 tumor cells (high dose UNC2371 15 mg/kg TID), with Colon26 tumor cells (low dose UNC2371 1 mg/kg TID) and in the assay on Colon26 tumor cells (mid dose UNC2371 5 mg/kg TID) were 6.9 days, 0.2 days and 2.9 days, respectively. Further, the figures for the “tumor growth delay (TGD), percent” value in the assay on Colon26 tumor cells (high dose UNC2371 15 mg/kg TID), in the assay with Colon26 tumor cells (low dose UNC2371 1 mg/kg TID) and with Colon26 tumor cells (mid dose UNC2371 5 mg/kg TID) were 50%, 1% and 21%, respectively. The entries for the “mice remaining through day 15” value in the assay on Colon26 tumor cells (high dose UNC2371 15 mg/kg TID), with Colon26 tumor cells (low dose UNC2371 1 mg/kg TID) and in the assay with Colon26 tumor cells (mid dose UNC2371 5 mg/kg TID) were 8/9, 3/9 and 6/9, respectively. In [3], the “T cell (CD3 marker) penetration into the core of the tumor” value was “notable increase”. Further, in assay [3] (1 mg/kg UNC2371 (low dose)), the “T cells (cell marker CD3) in tumor compared to vehicle” value is “increased”. For the same compound, in assay [3] (low dose 1 mg/kg UNC2371), the survivin staining result is “markedly decreased staining”. Further, the “secondary tumor volume compared with XRT alone” value with B16 melanoma (UNC2371 50 mg/kg oral gavage qd from Day 8, anti-PD1 200 μg IP days 6, 9, 12, FIG. 22A) is “more effective than XRT alone”. Besides, in the assay with B16 melanoma (XRT+UNC2371 vs XRT, FIG. 22C), the “tumor derived myeloid-derived suppressor cells (MDSCs)” value was “decrease”. Also, in the assay on B16 melanoma (with XRT 8 Gy days 9, 10, 11, UNC2371 50 mg/kg qd, anti-PD1 200 μg IP, FIG. 22B), the “abscopal effect on the secondary tumor” value is “enhanced the abscopal effect”. Moreover, in [4] (25 mg/kg UNC2371 for 5 days vs vehicle control), the “arginase mRNA expression” value is “decrease”. In addition, the “iNOS (inducible nitric oxide synthase) mRNA expression” value in [4] (10, 25, or 50 mg/kg UNC2371 for 5 days vs vehicle control) is “decrease”. The “IDO (indoleamine 2,3-dioxygenase) mRNA expression” value in [4] (10 or 25 mg/kg UNC2371 for 5 days vs vehicle control) is listed as “decrease”. Besides, the “CD8+ cells in the tumor” value in assay [5] (Day 8, FIG. 19, combination: low dose or medium dose UNC2371) was “increase”. In addition, in assay [5] (Day 8, FIG. 20), the “Natural Killer (NK) cells in the tumor” value is on record as “increase”.
`CCCCNc1ncc2c(-c3ccc(S(=O)(=O)N4CCOCC4)cc3)cn(C3CCC(O)CC3)c2n1` (stereo not drawn) [UNC 1666]: in the assay on AML, the “myeloid survival in AML” value is “decreases” and the “oncogenic signaling in AML” value is recorded as “decreases”.
